From patent US6939859B1, “Skin preparations for external use” (CCI Corp., priority 1999, dated 2005)

What was measured:
[1] = tested on: fibroblasts originating in the lungs of Chinese hamster (V79); assay: Test for confirming effect of preventing ultraviolet light (UVB) disorder, V79 cells; assay type: cell-based; details: 1 mM chromanol glycoside, UVB 312 nm 60 mJ/cm^2, 72 h culture, neutral red, non-irradiated = 100%
Description: (§1) The fibroblasts originating in the lungs of Chinese hamster (V79) or the diploid fibroblasts originating in the skin-of a normal person (NB1RGB) were adjusted in a culture medium till the cell density reached 5.0×10^4 pieces/ml, sown at a rate of 100 μl in each of the wells on a 96-hole plate, and cultured in an atmosphere of 5% CO2 kept at 37° C. for 24 hours. As the culture medium, an E-MEM medium containing 10% bovine fetus serum (made by Nissui K.K.) For V79 or an α-MEM medium (made by SIGMA) for NB1RGB (hereinafter each referred to as “ordinary culture medium”).
(§2) After 24 hours' culture, the culture medium was removed and the individual wells were each washed twice with 200 μl of Hanks equilibrium salt buffer (Hanksbuffer). Some of these wells to which the Hanks buffer alone was added in a unit amount of 100 μl formed a control group and the remainders of them to which the Hanks buffer having a given chromanol glycoside dissolved till a final concentration of 1 mM was added in a unit amount of 100 μl formed a chromanol glycoside-added group. The groups each consisted of 46 samples. They were irradiated with a UVB (312 nm) emitted from an ultraviolet lamp (made by Cosmo Bio K.K.) at a dosage of 60 mJ/cm^2. The amount of the energy so emitted was measured by the use of an ultraviolet light intensity meter (made by Topcon K.K. and sold under the product code of “UVR-2”).
(§3) Immediately after completion of the irradiation, the wells were each washed twice with 200 μl. With the ordinary culture medium added in a unit volume of 100 μl to the wells, the contents of the wells were cultured for 72 hours. After the elapse of 72 hours from thence, the neutral red reagent (0.015%) was added in a unit volume of 100 μl to the wells and the resultant contents of the wells were cultured for 3 hours. After the elapse of 3 hours from thence, the culture medium was removed and a fixing solution (aqueous solution containing 0.5% of formaldehyde and 0.1% of calcium chloride) was added in a unit volume of 200 μl to the wells. The resultant contents of the wells were fixed for one minute and the fixing solution was removed from the wells. Then, an extracting solution (aqueous solution containing 50% of ethanol and 1% of acetic acid) were added in a unit volume of 100 μl to the wells. The resultant contents of the wells were left standing for 20 minutes and assayed with a micro-plate reader for the absorbency at 490 nm and visually examined to count the number of live cells. On the basis of the results of the assay, the relative survival ratios of the samples were determined, with the number of cells in the groups of wells not irradiated with the ultraviolet light taken as 100%.

[2] = tested on: diploid fibroblasts originating in the skin of a normal person (NB1RGB); assay: Test for confirming effect of preventing ultraviolet light (UVB) disorder, NB1RGB cells; assay type: cell-based, human; details: 1 mM chromanol glycoside, UVB 312 nm 60 mJ/cm^2, 72 h culture, neutral red, non-irradiated = 100%
Description: as §1, §2, §3

[3] = tested on: V79; assay: Test for confirming effect of promoting growth of cells, V79; assay type: cell-based, Chinese hamster; details: 100 μM chromanol glycoside, 72 h, neutral red, control = 100%
Description: (§4) V79 or NB1RGB was adjusted with a culture medium till the cell density reached 5×10^4 pieces/ml. Then, it was sown in a unit volume of 100 μl in the component wells of a 96-hole plate and cultured in an atmosphere of 5% CO2 at 37° C. for 72 hours. The culture medium used herein was the ordinary culture medium. Some of the wells effecting culture in the ordinary culture medium containing 100 μM of chromanol glycoside formed a chromanol glycoside-added group and the remainders of the wells effecting culture in the ordinary culture medium formed a control group. The groups each consisted of 80 samples. After the elapse of 72 hours from thence, a neutral red reagent (0.015%) was added in a unit volume of 100 μl to the wells and the resultant contents of the wells were cultured for 3 hours. After the 3 hours' culture, the culture medium was removed and a fixing solution (aqueous solution containing 0.5% of formaldehyde and 0.1% of calcium chloride) was added in a unit volume of 200 μl to the wells. The resultant contents of the wells were left fixing for one minute and then the fixing solution was removed. Subsequently, an extraction solution (aqueous solution containing 50% of ethanol and 1% of acetic acid) was added in a unit volume of 100 μl to the wells. The resultant contents of the wells were left standing for 20 minutes and measured for absorbency at 490 nm by the use of a micro-plate reader so as to allow computation of the number of cells. On the basis of the results of the measurement, the relative breeding ratios of the samples were determined, with the number of cells in the control groups taken as 100%.

[4] = tested on: NB1RGB; assay: Test for confirming effect of promoting growth of cells, NB1RGB; assay type: cell-based, human; details: 100 μM chromanol glycoside, 72 h, neutral red, control = 100%
Description: as §4

[5] = tested on: interleukin-1α (IL-1α); assay: Effect of preventing UVB-induced cytokine (IL-1α production, sample present during irradiation); assay type: cell-based; details: cornified cells of normal human neonate foreskin; 0.1 mM sample during UVB 30 mJ/cm^2; 6 h culture; ELISA; means ± S.E.
Description: Cornified cells of normal human neonate foreskin scurfskin (freeze-preserved product, made by Kurabo K.K.) were adjusted to a cell density of 1.0×10^5 pieces/ml in a HuMedia-KG2 culture medium (made by Kurabo K.K.), sown in a unit volume of 2 ml in the component wells of a 6-hole plate, and cultured in an atmosphere of 5% CO2 at 37° C. for 24 hours. After completion of the culture, the culture medium was removed and the wells were each washed twice with 2 ml of Hanks buffer. Some of these wells to which the Hanks buffer alone was added in a unit amount of 1 ml formed a control group and the remainders of them to which the Hanks buffer containing 0.1 mM of a given sample was added in a unit amount of 1 ml formed a sample-added group. The groups each consisted of 8 samples. They were irradiated with a UVB (312 nm) emitted from an ultraviolet lamp (made by Cosmo Bio K.K.) at a dosage of 30 mJ/cm^2. The amount of the energy so emitted was measured by the use of an ultraviolet light intensity meter (made by Topcon K.K. and sold under the trademark designation of “UVR-2).
Immediately after completion of the irradiation, the wells were each washed twice with 2 m of Hanks buffer. With a HuMedia-KG2 culture medium added in a unit volume of 1 ml to the wells, the contents of the wells were cultured in an atmosphere of 5% CO2 at 37° C. for 6 hours.
(§5) The supernatant occurring at the end of 6 hours' culture was recovered and centrifuged at 1000 rpm for 5 minutes. The concentration of the IL-1α in the resultant supernatant was determined by the use of an ELISA kit made by ENDOGENE Corp. The significance was verified by the t-test and was applied to the groups yet to be treated.

[6] = tested on: interleukin-1α (IL-1α); assay: Effect of curing UVB disorder (IL-1α production, sample added after irradiation); assay type: cell-based; details: cornified cells of normal human neonate foreskin; 0.1 mM sample added after UVB 30 mJ/cm^2; 6 h culture; ELISA; means ± S.E.
Description: Cornified cells of normal human neonate foreskin scurfskin (freeze-preserved product, made by Kurabo K.K.) were adjusted to a cell density of 1.0×10^5 pieces/ml in a HuMedia-KG2 culture medium (made by Kurabo K.K.), sown in a unit volume of 2 ml in the component wells of a 6-hole plate, and cultured in an atmosphere of 5% CO2 at 37° C. for 24 hours. After completion of the culture, the culture medium was removed and the wells were each washed twice with 2 ml of Hanks buffer. The Hanks buffer alone was added in a unit volume of 1 ml to the wells. They were irradiated with a UVB (312nm) emitted from an ultraviolet lamp (made by Cosmo Bio K.K.) at a dosage of 30 mJ/cm”. The amount of the energy so emitted was measured by the use of an ultraviolet light intensity meter (made by Topcon K.K. and sold under the trademark designation of “UVR-2”) . . . . Some of these wells to which the Hanks buffer alone was added in a unit amount of 1 ml formed a control group and the remainders of them to which the Hanks buffer containing 0.1 mM of a given sample was added in a unit amount of 1 ml formed a sample-added group. The groups each consisted of 8 samples. The contents of the wells were cultured in an atmosphere of 5% CO2 at 37° C. for 6 hours.
as §5

[7] = tested on: pigment-sedimented skin of colored guinea pigs; assay: Improving effect relative to deposition of ultraviolet light-induced pigment; assay type: in vivo, guinea pig; details: 5% TMG solution in 50% ethanol, applied twice daily for three weeks, 5.6 μl/cm^2; brightness of skin (L value)
Description: Pigment-sedimented models wee produced from Al-1 type colored guinea pigs (female, 7-week old) divided into groups of 6 heads by shaving their backs and performing the irradiation of the skins of the backs with the ultraviolet light (light source: xenon lamp, dose: 2 MED×1 minute) once daily up to a total of three repetitions three to four days apart. After the models had been left standing for 10 days from thence, the specific portions of the pigment-sedimented parts were measured for the brightness of skin (L value) by the use of a calorimeter (former value). To the pigment-sedimented parts, a 5% TMG solution adjusted by using a 50% ethanol solution as a solvent was applied twice daily continuously for three weeks (amount applied:5.6 μl/cm^2). The guinea pigs which had undergone this application formed a TMG-applied group. The guinea pigs which had undergone application of a 50% ethanol solution in the place of the 5% TMG solution formed a control group. After three weeks from the start of the application, the skins of their backs were measured for the brightness with a calorimeter (latter value) to find the ΔL value(former value−lattervalue).

[8] = tested on: ICR type mice; assay: Test for acute toxicity; assay type: in vivo; details: oral, 500 mg/kg as TMG in 5% gum arabic, observation for one week
Description: The dermatological agent for external use of this invention was tested for acute toxicity so as to establish the safety thereof. ICR type mice4-5 weeks old were divided into groups each of three heads. The same TMG as mentioned above was suspended as a chromanol glycoside in a 5% gum arabic solution. The suspension was orally administered to the mice at a unit dosage of 500 mg/kg as reduced to TMG and the mice were kept under observation for one week. To the mice in the control group, a 5% gum arabic solution was orally administered in a unit volume of 0.3 ml. No fatality was found in any of the mice in the administration group.

Structure (SMILES) | Survival ratio (%) [1] | Survival ratio (%) [2] | Breeding ratio (%) [3] | Breeding ratio (%) [4] | Amount of IL-1α produced, Effect of prevention [5] | Amount of IL-1α produced, Effect of curing [6] | ΔL value [7] | Fatality (acute toxicity) [8]
Cc1c(C)c2c(c(C)c1O)CCC(C)(C[C@@H]1O[C@H](CO)[C@H](O)[C@H](O)[C@H]1O)O2 (stereo partly drawn) [TMGA, 2-(β-D-Galactopyranosyl)methyl-2,5,7,8-tetramethyl chroman-6-ol] | 83 ± 7 % | 83 ± 14 % | 115% | 121% | – | – | – | –
O=C1O[C@H]([C@@H](O)CO)C(O)=C1O [Ascorbic acid] | – | – | – | – | 16.5 ± 2.8 µg/mL | 31.7 ± 5.0 µg/mL | – | –
N[C@@H](CCC(=O)N[C@@H](CS)C(=O)NCC(=O)O)C(=O)O [Glutathione] | – | – | – | – | 7.2 ± 3.4 µg/mL | 36.5 ± 1.6 µg/mL | – | –
Cc1c(C)c2c(c(C)c1O)CCC(C)(C[C@H]1O[C@H](CO)[C@@H](O)[C@H](O)[C@@H]1O)O2 (stereo partly drawn) [TMMA, 2-(α-D-Mannopyranosyl)methyl-2,5,7,8-tetramethyl chroman-6-ol] | 96 ± 9 % | 79 ± 8.7 % | 124% | 121% | – | – | – | –
Cc1c(C)c2c(c(C)c1O)CCC(C)(C[C@H]1O[C@H](CO)[C@@H](O)[C@H](O)[C@H]1O)O2 (stereo partly drawn) [TMG, 2-(α-D-Glucopyranosyl)methyl-2,5,7,8-tetramethyl chroman-6-ol] | 75 ± 8 % | 78 ± 16 % | 112% | 118% | 14.5 ± 3.5 µg/mL | 18.5 ± 4.2 µg/mL | 2.00 | No fatality
Cc1c(C)c2c(c(C)c1O)CCC(C)(C[C@]1(CO)O[C@H](CO)[C@@H](O)[C@@H]1O)O2 (stereo partly drawn) [TMFR, 2-(β-D-Fructofuranosyl)methyl-2,5,7,8-tetramethyl chroman-6-ol] | 89 ± 9 % | 81 ± 12 % | 126% | 115% | – | – | – | –
